Active and inactive are the calls of the source. The rule behind the calls is not given here.
Columns and labels:
A549 = assay: cells; conditions: Homo sapiens, A549, 48 h
Description: Antiproliferative activity against human A549 cells incubated for 48 hrs by CCK8 assay

A2780 = assay: Antiproliferative activity against human A2780 cells incubated for 48 hrs by CCK8 assay; assay type: functional, cell-based; conditions: A2780, 48 h
HCC827 = assay: Antiproliferative activity against human HCC827 cells incubated for 48 hrs by CCK8 assay; assay type: functional, cell-based; conditions: HCC827, 48 h
SK-OV-3 [1] = assay: Antiproliferative activity against human SK-OV-3 cells incubated for 48 hrs by CCK8 assay; assay type: functional, cell-based; conditions: SK-OV-3, 48 h
Tubulin (Homo sapiens) = Tubulin (Homo sapiens) (UniProt P68371+Q9H4B7+P0DPH7+P68366+Q13509+Q71U36+P04350+Q3ZCM7+P07437+P68363+Q9BQE3+Q6PEY2+Q13885+Q9BVA1+Q9BUF5); assay: Inhibition of tubulin polymerization in human SK-OV-3 assessed as disruption of microtubule organization at 2 nM incubated for 24 hrs by immunofluorescence based analysis; assay type: cell-based
Sus scrofa = organism: Sus scrofa; assay: Inhibition of porcine brain tubulin polymerization at 10 uM measured for 60 min by fluorescence based assay
[2] = Antiproliferative activity against Paclitaxel-resistant human A2780 cells incubated for 48 hrs by CCK8 assay; assay type: functional, cell-based; conditions: Paclitaxel-resistant A2780, 48 h
Tubulin = assay: Binding affinity to CM5-chip immobilized tubulin (unknown origin) assessed as dissociation constant by SPR analysis; assay type: protein-complex assay, Homo sapiens
SK-OV-3 [3] = assay: Induction of cell cycle arrest at G2/M phase in human SK-OV-3 cells at 5 nM incubated for 24 hrs by PI staining based flow cytometry (reference value: 30.13 %); assay type: functional
SK-OV-3 [4] = assay: Induction of apoptosis in human SK-OV-3 cells assessed as late apoptotic cells at 5 nM incubated for 48 hrs by Annexin V-APC-A/7-AAD-A staining based flow cytometry (reference value: 1.22 %); assay type: functional
SK-OV-3 [5] = assay: Induction of apoptosis in human SK-OV-3 cells assessed as early apoptotic cells at 5 nM incubated for 48 hrs by Annexin V-APC-A/7-AAD-A staining based flow cytometry (reference value: 1.10 %); assay type: functional
SK-OV-3 [6] = assay: Induction of apoptosis in human SK-OV-3 cells assessed as viable cells at 5 nM incubated for 48 hrs by Annexin V-APC-A/7-AAD-A staining based flow cytometry (reference value: 97.17 %); assay type: functional; conditions: read-out: Activity
SK-OV-3 [7] = assay: Induction of apoptosis in human SK-OV-3 cells assessed as late apoptotic cells at 5 nM incubated for 48 hrs by Annexin V-APC-A/7-AAD-A staining based flow cytometry (reference value: 1.20 %); assay type: functional
SK-OV-3 [8] = assay: Induction of apoptosis in human SK-OV-3 cells assessed as early apoptotic cells at 5 nM incubated for 48 hrs by Annexin V-APC-A/7-AAD-A staining based flow cytometry (reference value: 1.12 %); assay type: functional
SK-OV-3 [9] = assay: Induction of apoptosis in human SK-OV-3 cells assessed as necrotic cells at 5 nM incubated for 48 hrs by Annexin V-APC-A/7-AAD-A staining based flow cytometry (reference value: 0.21 %); assay type: functional
SK-OV-3 [10] = assay: Induction of apoptosis in human SK-OV-3 cells assessed as viable cells at 5 nM incubated for 48 hrs by Annexin V-APC-A/7-AAD-A staining based flow cytometry (reference value: 97.50 %); assay type: functional; conditions: read-out: Activity
SK-OV-3 [11] = assay: Induction of apoptosis in human SK-OV-3 cells assessed as necrotic cells at 5 nM incubated for 48 hrs by Annexin V-APC-A/7-AAD-A staining based flow cytometry (reference value: 0.48 %); assay type: functional
SK-OV-3 [12] = assay: Induction of cell cycle arrest at G2/M phase in human SK-OV-3 cells at 5 nM incubated for 24 hrs by PI staining based flow cytometry (reference value: 29.73 %); assay type: functional

| Compound | IC50 (A549) | IC50 (A2780) | IC50 (HCC827) | IC50 (SK-OV-3 [1]) | also measured |
| --- | --- | --- | --- | --- | --- |
| COc1c(F)cc(N(C)c2nc(Cl)nc3ccsc23)cc1F | 0.238 µM | 0.119 µM | 0.052 µM | 0.0316 µM |  |
| COc1ccc(N(C)c2nc(NC3CC3)nc3ccsc23)cc1 | 0.0732 µM | 0.0304 µM | 0.0198 µM | 0.0253 µM |  |
| COc1ccc(N(C)c2nc(Cl)nc3ccccc23)cc1 | 0.00128 µM | 0.00109 µM | 0.00125 µM | 0.00078 µM |  |
| COc1ccc(N(C)c2nc(Cl)nc3sccc23)cc1 | 0.00632 µM | 0.00544 µM | 0.00516 µM | 0.00495 µM |  |
| CN(c1ccc2c(c1)OCO2)c1nc(Cl)nc2ccsc12 | 0.634 µM | 0.411 µM | 0.308 µM | 0.172 µM |  |
| CN(c1ccc(C(F)(F)F)cc1)c1nc(Cl)nc2ccsc12 | > 1 µM | > 1 µM | > 1 µM | > 1 µM |  |
| COc1ccc(N(C)c2nc(N3CCN(C)CC3)nc3ccsc23)cc1 | > 1 µM | > 1 µM | > 1 µM | > 1 µM |  |
| CC(=O)O[C@H]1C(=O)[C@@]2(C)[C@H]([C@H](OC(=O)c3ccccc3)[C@]3(O)C[C@H](OC(=O)[C@H](O)[C@@H](NC(=O)c4ccccc4)c4ccccc4)C(C)=C1C3(C)C)[C@]1(OC(C)=O)CO[C@@H]1C[C@@H]2O [PACLITAXEL] | 0.00312 µM | 0.00131 µM | 0.00125 µM | 0.00119 µM | inhibition (Tubulin (Homo sapiens)): inactive; inhibition (Sus scrofa): inactive; IC50 [2]: 3.82 µM |
| COc1ccc(/C=C\c2cc(OC)c(OC)c(OC)c2)cc1O [COMBRETASTATIN A4] | 0.00257 µM | 0.00215 µM | 0.00225 µM | 0.00142 µM |  |
| COc1ccc(N(C)c2nc(Cl)nc3ccsc23)cc1 | 0.00863 µM | 0.00726 µM | 0.00855 µM | 0.00583 µM | Kd (Tubulin): 29.7 µM |
| Cc1nn(C)c2ccc(N(C)c3nc(Cl)nc4ccsc34)cc12 | 0.0276 µM | 0.028 µM | 0.0198 µM | 0.0141 µM |  |
| COc1ccc(Sc2nc(Cl)nc3ccsc23)cc1 | 0.0781 µM | 0.0311 µM | 0.0294 µM | 0.038 µM |  |
| COc1ccc(N(C)c2nc(Cl)nc3c2ccn3C)cc1 | 0.12 µM | 0.0734 µM | 0.054 µM | 0.0232 µM |  |
| COc1ccc(N(C)c2nc(Cl)nc3cc[nH]c23)cc1 | 0.0204 µM | 0.0226 µM | 0.0186 µM | 0.00902 µM |  |
| COc1ccc(N(C)c2nc(NC3CCC3)nc3ccsc23)cc1 | 0.211 µM | 0.119 µM | 0.113 µM | 0.0919 µM |  |
| COc1ccc(N(C)c2nc(Cl)nc3ccsc23)cc1F | 0.00257 µM | 0.00316 µM | 0.00165 µM | 0.00206 µM |  |
| COc1cc(N(C)c2nc(Cl)nc3ccsc23)cc(OC)c1OC | > 1 µM | > 1 µM | > 1 µM | > 1 µM |  |
| COc1ccc(N(C)c2nc(C)nc3ccsc23)cc1 | 0.0148 µM | 0.0157 µM | 0.00902 µM | 0.00622 µM |  |
| COc1ccc(Oc2nc(Cl)nc3ccsc23)cc1 | > 1 µM | > 1 µM | > 1 µM | > 1 µM |  |
| CN(c1ccc(C(F)F)cc1)c1nc(Cl)nc2ccsc12 | > 1 µM | > 1 µM | > 1 µM | > 1 µM |  |

| Compound | IC50 (A549) | IC50 (A2780) | IC50 (HCC827) | IC50 (SK-OV-3 [1]) | also measured |
| --- | --- | --- | --- | --- | --- |
| CCNc1nc(N(C)c2ccc(OC)cc2)c2sccc2n1 | 0.16 µM | 0.0509 µM | 0.0318 µM | 0.0529 µM |  |
| COc1cc2c(c(OC)c1OC)-c1ccc(OC)c(=O)cc1[C@@H](NC(C)=O)CC2 [COLCHICINE] |  | 0.0124 µM | 0.00931 µM | 0.0102 µM | Activity (SK-OV-3 [3]): 34.8%; Activity (SK-OV-3 [4]): 2.01%; Activity (SK-OV-3 [5]): 2.15%; viability at 0.005 µM (SK-OV-3 [6]): 96.2%; Activity (SK-OV-3 [7]): 1.53%; Activity (SK-OV-3 [8]): 1.47%; IC50 [2]: 0.501 µM; Activity (SK-OV-3 [9]): 0.38%; viability at 0.005 µM (SK-OV-3 [10]): 95.9%; Activity (SK-OV-3 [11]): 0.28%; Activity (SK-OV-3 [12]): 34.38% |
| COc1ccc(Nc2nc(Cl)nc3ccsc23)cc1 | > 1 µM | > 1 µM | > 1 µM | > 1 µM |  |
| COc1ccc(N(C)c2nc(N3CCCC3)nc3ccsc23)cc1 | > 1 µM | > 1 µM | > 1 µM | > 1 µM |  |
| COc1ccc2c(c1)CCCN2c1nc(Cl)nc2ccsc12 | 0.00513 µM | 0.00468 µM | 0.00225 µM | 0.00272 µM |  |
| COc1ccc(N(C)c2nc(Cl)nc3ccoc23)cc1 | 0.00905 µM | 0.00628 µM | 0.00464 µM | 0.00286 µM |  |
| CN(c1ccc(OC(F)(F)F)cc1)c1nc(Cl)nc2ccsc12 | 0.601 µM | 0.393 µM | 0.346 µM | 0.101 µM |  |
| COc1cccc(N(C)c2nc(Cl)nc3ccsc23)c1 | 0.388 µM | 0.225 µM | 0.14 µM | 0.0469 µM |  |
| CN(c1ccccc1)c1nc(Cl)nc2ccsc12 | > 1 µM | > 1 µM | > 1 µM | > 1 µM |  |
| COc1ccc(N(C)c2nc(N3CCC3)nc3ccsc23)cc1 | 0.699 µM | 0.307 µM | 0.228 µM | 0.0587 µM |  |
| COc1ccc(N(C)c2nc(NC3CCCC3)nc3ccsc23)cc1 | > 1 µM | > 1 µM | > 1 µM | 0.741 µM |  |
| COc1ccc2c(c1)CCN2c1nc(Cl)nc2ccsc12 | > 1 µM | > 1 µM | > 1 µM | > 1 µM |  |
| COc1cc(OC)cc(N(C)c2nc(Cl)nc3ccsc23)c1 | 0.785 µM | 0.651 µM | 0.431 µM | 0.265 µM |  |
| COc1ccc(N(C)c2nc(Cl)nc3[nH]ccc23)cc1 | 0.588 µM | 0.225 µM | 0.225 µM | 0.0393 µM |  |
| COc1ccc(N(C)c2nc(NC3CCCCC3)nc3ccsc23)cc1 | > 1 µM | > 1 µM | > 1 µM | > 1 µM |  |
| COc1ccc(N(C)c2ncnc3ccsc23)cc1 | 0.0881 µM | 0.0778 µM | 0.0492 µM | 0.0449 µM |  |
| CN(c1ccc(F)cc1)c1nc(Cl)nc2ccsc12 | > 1 µM | > 1 µM | > 1 µM | > 1 µM |  |
| CN(c1ccc2c(ccn2C)c1)c1nc(Cl)nc2ccsc12 | 0.00172 µM | 0.00156 µM | 0.00156 µM | 0.00122 µM |  |
| COc1ccc(N(C)c2nc(N(C)C)nc3ccsc23)cc1 | 0.285 µM | 0.225 µM | 0.13 µM | 0.0507 µM |  |
| COc1ccc(N(C)c2nc(N)nc3ccsc23)cc1 | 0.207 µM | 0.0611 µM | 0.021 µM | 0.0349 µM |  |

— ChEMBL document CHEMBL5608184, “Discovery and mechanistic insights into thieno[3,2-d]pyrimidine and heterocyclic fused pyrimidines inhibitors targeting tubulin for cancer therapy” (Eur J Med Chem, 2024)
